Test: Water solubility of labeling precursor
Assay type: physicochemical
Details: aqueous 0.1% acetic acid
Excerpt: The radiochemical strategy shown on FIG. 3 uses the mild, water soluble oxidant, N-chlorosuccinimide, to achieve iodination on the hydroxyphenyl group of 4. […] Even though much greater radiochemical yield was possible by increasing the ratio of 4 to Na^125I, the highest possible specific activity of the radiolabeled intermediate 5 and higher conjugation yields was facilitated by avoiding saturation of available reduced thiols. The intermediate 5 was easily purified from free iodide and oxidant using reverse-phase solid-phase extraction cartridges. Acid deprotection yielded the triacid 6, with completeness of reaction monitored by reverse-phase radio-HPLC (FIG. 3). This 4-hydroxy-3-iodophenyl derivative of DOTA, 6, was designated [^125I] HIP-DOTA. After exhaustive removal of acid by repeated evaporation of toluene, the thiol-containing antibody could be introduced for thiol-maleimide coupling. Remaining free thiols in the radioimmunoconjugate were capped with iodoacetic acid to avoid dimerization or formation of adducts with thiol containing plasma or endogenous proteins. All radioimmunoconjugates were analyzed for purity by size-exclusion HPLC and compared to the profile of unlabeled antibodies, such as trastuzumab.

## CC(C)(C)OC(=O)CN1CCN(CC(=O)NCCN(CC(=O)NCC(=O)NCCN2C(=O)C=CC2=O)C(=O)Cc2ccc(O)cc2)CCN(CC(=O)OC(C)(C)C)CCN(CC(=O)OC(C)(C)C)CC1 [compound 4, tri-tert-butyl 2,2′,2″-(10-(14-(2,5-dioxo-2,5-dihydro-1H-pyrrol-1-yl)-6-(2-(4-hydroxyphenyl)acetyl)-2,8,11-trioxo-3,6,9,12-tetraazatetradecyl)-1,4,7,10-tetraazacyclododecane-1,4,7-triyl)triacetate]
  Water solubility: sufficiently water soluble

From patent US9486546B2, “Methods and compositions for radiohalogen protein labeling” (Genentech, Inc., priority 2012, dated 2016)
